Measurements published in the NIST ThermoML archive (doi:10.1016/j.fluid.2018.05.028).

Test: xn = mol fraction of the nth substance listed
Conditions: 101 kPa, Liquid; for speed of sound: Single path-length method; for mass density: Vibrating tube method; for viscosity: Concentric cylinders viscometry

CCCCCCCC/C=C\CCCCCCCC(=O)OCC [ethyl (Z)-9-octadeceneoate] + CCCO
Conditions	mass density [kg/m3]	speed of sound [m/s]	viscosity [mPa·s]
318.15 K, x2 = 0	850.78	–	–
318.15 K, x2 = 0.1	848.97	–	–
318.15 K, x2 = 0.2	846.91	–	–
318.15 K, x2 = 0.3	844.5	–	–
318.15 K, x2 = 0.4	841.62	–	–
318.15 K, x2 = 0.5	838.06	1272.1	–
318.15 K, x2 = 0.6	833.53	1260.7	–
318.15 K, x2 = 0.7	827.44	1245.5	–
318.15 K, x2 = 0.8	818.94	1224.5	–
318.15 K, x2 = 0.9	805.97	1191.9	–
323.15 K, x2 = 0	847.17	1288.9	3.214
323.15 K, x2 = 0.1	845.32	1284.2	3.036
323.15 K, x2 = 0.2	843.22	1278.4	2.871
323.15 K, x2 = 0.3	840.76	1272	2.712
323.15 K, x2 = 0.4	837.83	1264.2	2.542
323.15 K, x2 = 0.5	834.21	1254.8	2.36
323.15 K, x2 = 0.6	829.63	1243.3	2.163
323.15 K, x2 = 0.7	823.48	1228.1	1.945
323.15 K, x2 = 0.8	814.91	1207.2	1.704
323.15 K, x2 = 0.9	801.87	1174.8	1.433
328.15 K, x2 = 0	843.58	1271.9	2.921
328.15 K, x2 = 0.1	841.67	1267.1	2.762
328.15 K, x2 = 0.2	839.52	1261.3	2.612
328.15 K, x2 = 0.3	837.01	1254.8	2.467
328.15 K, x2 = 0.4	834.04	1247.1	2.312
328.15 K, x2 = 0.5	830.37	1237.6	2.146
328.15 K, x2 = 0.6	825.72	1226.1	1.969
328.15 K, x2 = 0.7	819.5	1210.8	1.768
328.15 K, x2 = 0.8	810.86	1190	1.55
328.15 K, x2 = 0.9	797.72	1157.7	1.301
333.15 K, x2 = 0	839.98	1255.2	2.643
333.15 K, x2 = 0.1	838.03	1250.2	2.502
333.15 K, x2 = 0.2	835.83	1244.3	2.366
333.15 K, x2 = 0.3	833.26	1237.8	2.236
333.15 K, x2 = 0.4	830.24	1230	2.098
333.15 K, x2 = 0.5	826.5	1220.5	1.948
333.15 K, x2 = 0.6	821.79	1208.9	1.792
333.15 K, x2 = 0.7	815.49	1193.6	1.611
333.15 K, x2 = 0.8	806.76	1172.8	1.413
333.15 K, x2 = 0.9	793.52	1140.6	1.185
338.15 K, x2 = 0	836.39	1238.6	2.448
338.15 K, x2 = 0.1	834.39	1233.4	2.317
338.15 K, x2 = 0.2	832.14	1227.5	2.191
338.15 K, x2 = 0.3	829.51	1220.9	2.069
338.15 K, x2 = 0.4	826.42	1213	1.938
338.15 K, x2 = 0.5	822.62	1203.5	1.796
338.15 K, x2 = 0.6	817.84	1191.8	1.649
338.15 K, x2 = 0.7	811.45	1176.5	1.477
338.15 K, x2 = 0.8	802.63	1155.6	1.294
338.15 K, x2 = 0.9	789.27	1123.5	1.08
343.15 K, x2 = 0	832.81	1222.5	2.254
343.15 K, x2 = 0.1	830.76	1216.9	2.135
343.15 K, x2 = 0.2	828.45	1210.9	2.018
343.15 K, x2 = 0.3	825.76	1204.2	1.905
343.15 K, x2 = 0.4	822.6	1196.2	1.784
343.15 K, x2 = 0.5	818.73	1186.6	1.65
343.15 K, x2 = 0.6	813.87	1174.9	1.515
343.15 K, x2 = 0.7	807.39	1159.5	1.354
343.15 K, x2 = 0.8	798.46	1138.5	1.185
343.15 K, x2 = 0.9	784.97	1106.3	0.9873
